Test results reported in PMC7956626, “Phenylalanine-Derived β-Lactam TRPM8 Modulators. Configuration Effect on the Antagonist Activity” (International Journal of Molecular Sciences, 2021).
“Also recorded” adds a separate entry of the source.

Key:
rat TRPM8 [1] = target: T1, rat TRPM8 (Rattus norvegicus, UniProt Q8R455); assay: Ca2+ intracellular influx assay (calcium microfluorimetry), menthol-induced; format: cell-based; settings: 100 μM menthol; for % Blockade 5 μM: compound 5 μM; for % Blockade 5 μM / % Blockade 50 μM / IC50: HEK-rTRPM8; for Menthol-induced fluorescent signal: compound 10 μM, representative graph Figure A1; for % Blockade 50 μM: compound 50 μM
T1 construct: expressed in transfected cells; host or cells: HEK293 (human embryonic kidney), stably transfected
T1 sequence (Q8R455 whole entry): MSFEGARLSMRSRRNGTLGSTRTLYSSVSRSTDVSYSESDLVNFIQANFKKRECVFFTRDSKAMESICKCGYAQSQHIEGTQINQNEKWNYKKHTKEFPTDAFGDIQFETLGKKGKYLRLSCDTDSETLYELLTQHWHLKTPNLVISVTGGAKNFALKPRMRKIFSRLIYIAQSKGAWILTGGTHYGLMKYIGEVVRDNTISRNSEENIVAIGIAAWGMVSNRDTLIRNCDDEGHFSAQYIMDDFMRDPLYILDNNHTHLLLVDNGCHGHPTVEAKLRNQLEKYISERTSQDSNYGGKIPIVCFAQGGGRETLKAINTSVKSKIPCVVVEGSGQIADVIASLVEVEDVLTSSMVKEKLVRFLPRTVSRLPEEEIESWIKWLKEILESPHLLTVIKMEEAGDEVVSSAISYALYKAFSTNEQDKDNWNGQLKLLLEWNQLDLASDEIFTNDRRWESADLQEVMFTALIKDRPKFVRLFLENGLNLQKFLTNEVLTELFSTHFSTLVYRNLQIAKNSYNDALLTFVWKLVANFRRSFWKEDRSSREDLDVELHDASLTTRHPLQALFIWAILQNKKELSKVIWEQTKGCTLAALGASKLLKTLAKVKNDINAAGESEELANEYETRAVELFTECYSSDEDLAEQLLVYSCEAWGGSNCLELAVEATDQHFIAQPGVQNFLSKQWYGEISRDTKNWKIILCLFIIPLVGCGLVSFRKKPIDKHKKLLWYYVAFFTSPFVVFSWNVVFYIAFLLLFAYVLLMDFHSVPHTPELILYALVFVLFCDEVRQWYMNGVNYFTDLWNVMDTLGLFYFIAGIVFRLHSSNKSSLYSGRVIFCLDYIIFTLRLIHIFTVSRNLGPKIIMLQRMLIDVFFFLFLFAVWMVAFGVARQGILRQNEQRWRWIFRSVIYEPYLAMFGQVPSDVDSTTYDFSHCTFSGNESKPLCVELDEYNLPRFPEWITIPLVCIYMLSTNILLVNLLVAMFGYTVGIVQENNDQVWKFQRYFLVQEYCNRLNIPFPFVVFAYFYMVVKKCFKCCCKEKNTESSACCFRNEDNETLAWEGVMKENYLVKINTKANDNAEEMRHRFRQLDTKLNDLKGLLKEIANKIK
Experimental: The four obtained diastereomeric compounds were evaluated for their ability to inhibit menthol-induced Ca^2+ intracellular influx into the cytosol on HEK293 cells heterologously expressing rat TRPM8. The well-known TRPM8 antagonist N-(3-aminopropyl)-2-[(3-methylphenyl)methoxy]-N-(2-thienylmethyl)-benzamide (AMTB) was used as control. Some representative graphs for compound 14 and 16 at 10 μM on HEK-rTRPM8 cells are included in Figure A1.
Compounds were evaluated for their activity against rTRPM8 using microfluorometry based calcium flux assays with Fluo-4 NW Ca^2+ dye and fluorescence were measured at excitation wavelength of 485 nm and emission wavelength of 520 nm using POLASTAR plate reader (BMG Labtech). Briefly human embryonic kidney cell line (HEK) stably transfected with rTRPM8 were seeded in 96-well plates at a cell density of 30,000 cells and 2 days before the medium was replaced with 100 μL of the dye loading solution Fluo-4 NW supplemented with probenecid 2.5 mM. After 1 h incubation at 37 °C, plates were transferred to the plate reader and the baseline fluorescence was recorded for 3 cycles before the addition of vehicle, compound at different concentrations and the antagonist, 10 μM AMTB for TRPM8. Fluorescence intensity was recorded during 7 more cycles and the agonist was added, 100 μM menthol. Fluorescence intensity was recorded during 10 more cycles.
Data analysis: the fluorescence values obtained for each compound concentration were normalized to that prompted by the control agonist (100 μM menthol). Decrease in menthol signal was expressed as percentage of inhibition (%). All data are expressed as the mean ± standard deviation (SD). Each condition was assessed in triplicate (n = 3) in 3 independent experiments (N = 3). The Z-factor was calculated in each assay using the following equation: […]. In all the experiments, the Z-factor was ≥ 0.5. To calculate IC50, normalized responses (%) versus log (μM) were adjusted to a non-linear fit with variable slope, a four-parameter dose–response curve following curve Y = 100/(1 + 10^((Log IC50-X) × HillSlope)) where […].

hTRPV1 = target: T2, hTRPV1 (Homo sapiens, UniProt Q8NER1); assay: Ca2+ influx assay, TRPV1 selectivity; format: cell-based; settings: compound 50 μM; read-out: % TRPV1 Blockade at 50 μM
T2 construct: expressed in transfected cells
T2 sequence (Q8NER1 whole entry): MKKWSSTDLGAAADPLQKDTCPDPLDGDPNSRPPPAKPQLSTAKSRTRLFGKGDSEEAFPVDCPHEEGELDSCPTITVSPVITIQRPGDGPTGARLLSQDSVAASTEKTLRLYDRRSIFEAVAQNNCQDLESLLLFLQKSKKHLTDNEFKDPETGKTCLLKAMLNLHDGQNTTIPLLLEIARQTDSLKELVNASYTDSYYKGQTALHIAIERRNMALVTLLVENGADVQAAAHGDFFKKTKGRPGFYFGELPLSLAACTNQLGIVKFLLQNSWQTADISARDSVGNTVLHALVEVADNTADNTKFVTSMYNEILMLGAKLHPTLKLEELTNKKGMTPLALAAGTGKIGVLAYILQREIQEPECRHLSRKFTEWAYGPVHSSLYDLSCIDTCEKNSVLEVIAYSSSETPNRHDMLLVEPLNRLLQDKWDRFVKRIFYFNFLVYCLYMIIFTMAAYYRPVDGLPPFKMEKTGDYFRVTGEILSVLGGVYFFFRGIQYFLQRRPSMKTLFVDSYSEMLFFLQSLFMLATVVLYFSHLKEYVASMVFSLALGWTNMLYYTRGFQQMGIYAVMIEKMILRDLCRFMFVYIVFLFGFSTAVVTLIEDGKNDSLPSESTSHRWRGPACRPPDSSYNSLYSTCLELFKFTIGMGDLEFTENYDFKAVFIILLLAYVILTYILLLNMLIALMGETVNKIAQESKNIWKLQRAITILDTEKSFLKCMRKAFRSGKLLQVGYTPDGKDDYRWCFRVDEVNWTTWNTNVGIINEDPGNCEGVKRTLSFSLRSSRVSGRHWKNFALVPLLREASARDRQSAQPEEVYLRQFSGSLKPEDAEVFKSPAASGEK
Text: (§1) Because some molecular cross-recognition may occur within thermoTRP members, we evaluated the effect of compounds 14 and 16 on recombinantly expressed hTRPV1 and hTRPA1 channels. Data shown in Table 2 indicate that these β–lactam derivatives marginally cross-reacted with these channels, thus substantiating that they are potent and selective inhibitors of TRPM8.

hTRPA1 = target: T3, hTRPA1 (Homo sapiens, UniProt O75762); assay: Ca2+ influx assay, TRPA1 selectivity; format: cell-based; settings: compound 50 μM; read-out: % TRPA1 Blockade at 50 μM
T3 construct: expressed in transfected cells
T3 sequence (O75762 whole entry): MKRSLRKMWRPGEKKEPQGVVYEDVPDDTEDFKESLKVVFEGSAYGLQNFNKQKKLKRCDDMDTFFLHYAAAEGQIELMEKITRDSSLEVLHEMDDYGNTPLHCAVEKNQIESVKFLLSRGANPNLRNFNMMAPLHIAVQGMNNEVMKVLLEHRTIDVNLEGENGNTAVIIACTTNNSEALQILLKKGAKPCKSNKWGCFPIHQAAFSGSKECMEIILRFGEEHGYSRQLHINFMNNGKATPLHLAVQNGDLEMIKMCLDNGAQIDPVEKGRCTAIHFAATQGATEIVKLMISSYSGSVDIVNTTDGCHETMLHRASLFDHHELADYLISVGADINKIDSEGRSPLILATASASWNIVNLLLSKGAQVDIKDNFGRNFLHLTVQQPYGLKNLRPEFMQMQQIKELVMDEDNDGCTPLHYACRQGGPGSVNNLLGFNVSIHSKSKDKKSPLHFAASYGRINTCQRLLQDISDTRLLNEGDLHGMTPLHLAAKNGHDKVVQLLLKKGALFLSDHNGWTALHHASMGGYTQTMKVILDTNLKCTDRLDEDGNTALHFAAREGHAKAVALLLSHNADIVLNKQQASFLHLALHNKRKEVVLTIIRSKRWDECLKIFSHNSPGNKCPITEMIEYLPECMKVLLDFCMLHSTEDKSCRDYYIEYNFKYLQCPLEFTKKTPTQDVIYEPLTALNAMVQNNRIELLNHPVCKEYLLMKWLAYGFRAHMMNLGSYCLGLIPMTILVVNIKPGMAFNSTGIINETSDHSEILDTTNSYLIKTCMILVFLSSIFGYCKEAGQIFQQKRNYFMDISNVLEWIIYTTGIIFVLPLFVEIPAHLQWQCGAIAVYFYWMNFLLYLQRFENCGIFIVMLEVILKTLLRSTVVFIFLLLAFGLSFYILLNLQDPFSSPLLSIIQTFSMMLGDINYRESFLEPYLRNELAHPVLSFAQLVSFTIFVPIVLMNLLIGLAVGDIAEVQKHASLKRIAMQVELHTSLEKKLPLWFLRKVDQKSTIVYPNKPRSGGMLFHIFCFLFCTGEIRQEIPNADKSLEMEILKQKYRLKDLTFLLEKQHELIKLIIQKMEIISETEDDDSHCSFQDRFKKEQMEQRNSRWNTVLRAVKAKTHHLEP
Text: as §1

rat TRPM8 [2] = target: T1, rat TRPM8; assay: Whole-cell patch-clamp in HEK293 cells expressing rat TRPM8; format: cell-based; settings: 100 μM menthol; for % Blockade at 10 μM: compound 10 μM, whole cell; for IC50: holding potential −60 mV
Experimental: In the electrophysiology assay, both compounds at 10 μM concentration were able to block TRPM8-mediated responses induced by menthol (Figure 2 and Figure A2, Table 3). […] After 10 μM of 14 was applied (Figure 2A, red), an important decrease on the menthol-induced TRPM8 activity at depolarizing voltages was observed. A similar behavior was detected after application of diastereomeric β–lactam 16 (Figure 2B). The dose–response curves for both compounds were obtained at a holding potential of −60 mV (Figure 2). The measured IC50 values were 0.9 ± 1.0 μM for 14 (Figure 2C) and 0.05 ± 1.3 μM for 16 (Figure 2D).
Whole-cell patch-clamp recordings from HEK-rTRPM8 cells were carried out 2 days after seeding on 12-mm Ø glass coverslips treated with poly-L-lysine solution (Sigma Aldrich, Spain); the intracellular pipette solution contained (in mM) 150 NaCl, 5 EGTA, 3 MgCl2 and 10 HEPES, adjusted to pH 7.2 with NaOH, and the extracellular solution contained (in mM) 150 NaCl, 6 CsCl, 1.5 CaCl2, 1 MgCl2, 10 D-glucose and 10 HEPES, adjusted to pH 7.4 with NaOH. The TRPM8 activity was measured by the application of two pulses of 100 μM menthol in a time interval of 2 min and a 30-s perfusion of the different compound concentrations before the second menthol pulse.
(§2) Data were sampled at 10 kHz (EPC10 amplifier with PatchMaster 2.53 software, HEKA Electronics, Lambrecht, Germany) and low-pass filtered at 3 kHz for analysis (PatchMaster 2.53 and GraphPad Prism 5, Graphpad Software, USA). The series resistance was <10 MΩ and to minimize voltage errors was compensated to 60–80%. All measurements were performed at 24–25 °C. Cell capacitance was measured and used to estimate the current density (J, pA/pF).
Data analysis: Results are expressed as the percentage of remaining activation of the TRPM8 channel. This is calculated by normalizing the ratio (p2/p1) of testing conditions to the ratio (p2/p1) of the control condition. Analysis of the data was performed by GraphPad 6.0, the Ordinary One-Way ANOVA analysis followed by the post hoc Bonferroni test stablished multiple comparisons and the ROUT method (Q = 10%) identified data outliers. A non-linear regression curve and IC50 were obtained by the representation of log (inhibitor) vs. response. All data are expressed as the mean ± standard error of the mean (SEM) (n = 5–8).

rat DRG sensory neurons = assay: Current-clamp resting membrane potential of DRG sensory neurons; format: cell-based; settings: compound 10 μM, t-test ns
Experimental: Next, we investigated the effect of the membrane of rat DRG sensory neurons. […] Sensory neurons were functional as evidenced by action potentials fired exposed to 100 μM menthol (Figure 3A, top trace).
Current-Clamp recordings from rat DRGs were carried out 24–48 h after seeding on 12-mm Ø glass coverslips treated with poly-L-lysine solution and Laminin (Sigma Aldrich). The intracellular pipette solution contained (in mM): 4 NaCl, 126 K gluconate, 0.02 CaCl2, 1 MgSO4, 5 HEPES, 15 glucose, 3 ATP, 0.1 GTP and 5 EGTA, pH 7.2 with KOH. The extracellular solution contained (in mM): 140 NaCl, 4 KCl, 2 CaCl2, 2 MgCl2, 10 HEPES, 5 glucose and 20 mannitol, pH 7.4 with NaOH. The membrane potential was measured in the absence and the presence of compounds 14 and 16 at 10 μM in a time interval of 1 min.
as §2

rat DRG neurons = assay: Microelectrode array, KCl-evoked action potentials in DRG neurons; format: cell-based; settings: compound 10 μM; 40 mM KCl
Text: To further interrogate β–lactam derivatives’ action on the excitability of DRG neurons we next used microelectrode arrays (MEA). This technology records the electrogenic activity of neural populations that are located near to an electrode, but it cannot differentiate the number of neurons or other cells contributing to it. We used MEA chips with 60 electrodes and monitored the electrical activity at each electrode to measure if the potent inhibitory effect of β–lactam derivatives act on voltage-gated Na^+ and K^+ channels present in neurons and responsible for action potential propagation. Neurons isolated from neonatal rat dorsal root ganglions (DRG) were cultured on MEA chambers. The experimental paradigm consisted in applying a first 15-s pulse (P1) of 40 mM KCl, to evoke action potentials. […]
Data analysis: Data were analyzed using an MC_RACK spike sorter with a sample rate of 25 kHz and a Butterworth high-pass 2nd order filter applied with 200 Hz cutoff. […] Spiking activity was measured in a temporal interval of 30 s, starting right after instillation of the activating stimuli. […] The recorded signals were then processed to extract mean spike frequency for each pulse (P1–P2). Then, the ratio P2/P1 of mean spike frequency was calculated and normalized to vehicle for comparing the different conditions used.

TRPM8 = test system: TRPM8; parameters: method as in PMID 25893043, PMID 30148953; settings: healthy volunteers and migraneous patients, respectively; ref [35],[36]; cited from earlier work
rat TRPM8 [3] = target: T1, rat TRPM8; parameters: method as in PMID 32843690; settings: ref [41]; cited from earlier work
[4] = test system: oxaliplatin-induced allodynia; parameters: method as in PMID 32843690; settings: mice; from 15 to up to 60 min; ref [41]; cited from earlier work
four tumor cell lines = test system: four tumor cell lines; parameters: method as in PMID 32843690; settings: non-selective, ref [41]; cited from earlier work

% Blockade 5 μM (rat TRPM8 [1]) [%] | Menthol-induced fluorescent signal (rat TRPM8 [1]) | % Blockade 50 μM (rat TRPM8 [1]) [%] | inhibition at 50 µM (hTRPV1) [%] | inhibition at 50 µM (hTRPA1) [%] | % Blockade at 10 μM (rat TRPM8 [2]) [%] | IC50 (rat TRPM8 [2]) [nM] | IC50 (rat TRPM8 [1]) [nM] | Structure (SMILES) | Effect on resting membrane potential (rat DRG sensory neurons) | Effect on potassium-evoked action potentials (electrogenicity) (rat DRG neurons) | Adverse effects in phase I clinical trials (TRPM8) | Block of channel activation by menthol (Ca2+ entry assay) (rat TRPM8 [3]) | Oxaliplatin-induced allodynia [4] | Antitumor activity (four tumor cell lines)
87.3 ± 8.1 | completely blocked | 98.5 ± 3.2 | 4.2 ± 3.2 | 0.5 ± 4.1 | 79.3 ± 2.7 | 50 | – | C[C@H]1C(=O)N(C[C@@H](Cc2ccccc2)N(Cc2ccccc2)Cc2ccccc2)[C@@]1(Cc1ccccc1)C(=O)OCc1ccccc1 [Compound 16, 4R-Benzyl-1-[(2′R-dibenzylamino-3′-phenyl-)prop-1′-yl]-4-benzyloxicarbonyl-3R-methyl-2-oxoazetidine] | do not affect the membrane resting potential | do not alter potassium-evoked action potentials; also recorded: did not affected the electrogenicity | – | – | – | –
78.9 ± 1.7 | completely blocked | 87.7 ± 3.1 | 2.8 ± 4.1 | 2.4 ± 1.4 | 77.2 ± 2.7 | 900 ± 1000 | – | C[C@@H]1C(=O)N(C[C@@H](Cc2ccccc2)N(Cc2ccccc2)Cc2ccccc2)[C@]1(Cc1ccccc1)C(=O)OCc1ccccc1 [Compound 14, 4S-Benzyl-1-[(2′R-dibenzylamino-3′-phenyl)prop-1′-yl]-4-benzyloxicarbonyl-3S-methyl-2-oxoazetidine] | do not affect the membrane resting potential | do not alter potassium-evoked action potentials; also recorded: did not affected the electrogenicity | – | – | – | –
71.1 ± 4.3 | – | 90.3 ± 2.8 | 5.3 ± 3.4 | 2.6 ± 1.9 | – | – | 700 ± 1100 | C[C@H]1C(=O)N(C[C@H](Cc2ccccc2)N(Cc2ccccc2)Cc2ccccc2)[C@@]1(Cc1ccccc1)C(=O)OCc1ccccc1 [Compound 15, 4R-Benzyl-1-[(2′S-dibenzylamino-3′-phenyl)prop-1′-yl]-4-benzyloxicarbonyl-3R-methyl-2-oxoazetidine] | – | – | – | – | – | –

The next lines start with the molecule.

Structure (SMILES) | % Blockade 5 μM (rat TRPM8 [1]) [%] | Menthol-induced fluorescent signal (rat TRPM8 [1]) | % Blockade 50 μM (rat TRPM8 [1]) [%] | inhibition at 50 µM (hTRPV1) [%] | inhibition at 50 µM (hTRPA1) [%] | % Blockade at 10 μM (rat TRPM8 [2]) [%] | IC50 (rat TRPM8 [2]) [nM] | IC50 (rat TRPM8 [1]) [nM] | Effect on resting membrane potential (rat DRG sensory neurons) | Effect on potassium-evoked action potentials (electrogenicity) (rat DRG neurons) | Adverse effects in phase I clinical trials (TRPM8) | Block of channel activation by menthol (Ca2+ entry assay) (rat TRPM8 [3]) | Oxaliplatin-induced allodynia [4] | Antitumor activity (four tumor cell lines)
C[C@H](c1ccc(F)cc1)N(Cc1cccc(C(=O)O)c1)C(=O)c1cnc2ccccc2c1 [PF-05105679] | – | – | – | – | – | – | – | – | – | – | several adverse effects, including feeling hot | – | – | –
C[C@@H]1C(=O)N(C[C@H](Cc2ccccc2)N(Cc2ccccc2)Cc2ccccc2)[C@]1(Cc1ccccc1)C(=O)OCc1ccccc1 [Compound 13, 4S-Benzyl-1-[(2′S-dibenzylamino-3′-phenyl-)prop-1′-yl]-4-benzyloxicarbonyl-3S-methyl-2-oxoazetidine] | 57.7 ± 7.2 | – | 86.1 ± 5.0 | 7.9 ± 3.2 | 3.7 ± 4.1 | – | – | 3100 ± 1100 | – | – | – | – | – | –
C[C@@H]1C(=O)N(C[C@H](Cc2ccccc2)NC(=O)OCc2ccccc2)[C@]1(Cc1ccccc1)C(=O)OCc1ccccc1 [Compound 1] | – | – | – | – | – | – | – | – | – | – | – | micromolar values | significantly reduces the oxaliplatin-induced allodynia | micromolar potency in four tumor cell lines
